# Results taken from patent publication US11339447B2, “System and method for determining Kareniticin sensitivity on cancer” (CROWN BIOSCIENCE, INC. (TAICANG), priority 2017, dated 2022).
# How the values were obtained:
# Assay in all cases: karenitecin treatment of PDX model
# Format in all cases: in vivo
# Design in all cases: key to Response: responder: responded to karenitecin treatment (AUC<0.5 and TGI>0.8); non_responder: did not respond to karenitecin treatment (AUC>0.5 and TGI<0.6)
# Details in all cases: karenitecin treatment for two weeks
# PDX CR2524 = system: PDX CR2524
# Experimental: (§1) A cohort of 48 PDX models in 8 cancers were used in this study. Those models were subject to karenitecin treatment for two weeks. Both tumor growth inhibition (TGI) and median AUC (area under curve) ratio, a newly developed metric to evaluate drug efficacy, were calculated (Table 1). Those models can be divided into two categories according to TGI and median AUC ratio.
# PDX LU1542 = system: PDX LU1542
# Experimental: as §1
# PDX LU1868 = system: PDX LU1868
# Experimental: as §1
# PDX ES0212 = system: PDX ES0212
# Experimental: as §1
# PDX OV1658 = system: PDX OV1658
# Experimental: as §1
# PDX CR0126 = system: PDX CR0126
# Experimental: as §1
# PDX GA3055 = system: PDX GA3055
# Experimental: as §1
# PDX LU1215 = system: PDX LU1215
# Experimental: as §1
# PDX CR3079 = system: PDX CR3079
# Experimental: as §1
# PDX CR2545 = system: PDX CR2545
# Experimental: as §1
# PDX CR3085 = system: PDX CR3085
# Experimental: as §1
# PDX PA1301 = system: PDX PA1301
# Experimental: as §1
# PDX OV0243 = system: PDX OV0243
# Experimental: as §1
# PDX LU0330 = system: PDX LU0330
# Experimental: as §1
# PDX LU0858 = system: PDX LU0858
# Experimental: as §1
# PDX ES0176 = system: PDX ES0176
# Experimental: as §1
# PDX SA0271 = system: PDX SA0271
# Experimental: as §1
# PDX LU1116 = system: PDX LU1116
# Experimental: as §1
structure (smiles),measurement,setting,value
CC[C@@]1(O)C(=O)OCc2c1cc1n(c2=O)Cc2c-1nc1ccccc1c2CC[Si](C)(C)C [karenitecin],Median AUC ratio,PDX CR2524,0.333
same,Response,PDX CR2524,responder
same,TGI,PDX CR2524,1.120
same,Median AUC ratio,PDX LU1542,−3.610
same,Response,PDX LU1542,responder
same,TGI,PDX LU1542,1.195
same,Median AUC ratio,PDX LU1868,0.915
same,Response,PDX LU1868,non_responder
same,TGI,PDX LU1868,0.534
same,Median AUC ratio,PDX ES0212,0.061
same,Response,PDX ES0212,responder
same,TGI,PDX ES0212,1.017
same,Median AUC ratio,PDX OV1658,0.764
same,Response,PDX OV1658,non_responder
same,TGI,PDX OV1658,0.433
same,Median AUC ratio,PDX CR0126,1.399
same,Response,PDX CR0126,non_responder
same,TGI,PDX CR0126,−0.308
same,Median AUC ratio,PDX GA3055,−0.072
same,Response,PDX GA3055,responder
same,TGI,PDX GA3055,1.215
same,Median AUC ratio,PDX LU1215,0.232
same,Response,PDX LU1215,responder
same,TGI,PDX LU1215,1.006
same,Median AUC ratio,PDX CR3079,0.706
same,Response,PDX CR3079,non_responder
same,TGI,PDX CR3079,0.381
same,Median AUC ratio,PDX CR2545,0.597
same,Response,PDX CR2545,non_responder
same,TGI,PDX CR2545,0.379
same,Median AUC ratio,PDX CR3085,0.019
same,Response,PDX CR3085,responder
same,TGI,PDX CR3085,1.051
same,Median AUC ratio,PDX PA1301,1.038
same,Response,PDX PA1301,non_responder
same,TGI,PDX PA1301,0.285
same,Median AUC ratio,PDX OV0243,−1.983
same,Response,PDX OV0243,responder
same,TGI,PDX OV0243,1.449
same,Median AUC ratio,PDX LU0330,1.094
same,Response,PDX LU0330,non_responder
same,TGI,PDX LU0330,0.000
same,Median AUC ratio,PDX LU0858,0.027
same,Response,PDX LU0858,responder
same,TGI,PDX LU0858,1.000
same,Median AUC ratio,PDX ES0176,1.242
same,Response,PDX ES0176,non_responder
same,TGI,PDX ES0176,−0.177
same,Median AUC ratio,PDX SA0271,−0.133
same,Response,PDX SA0271,responder
same,TGI,PDX SA0271,1.104
same,Median AUC ratio,PDX LU1116,0.111
same,Response,PDX LU1116,responder
same,TGI,PDX LU1116,1.250
